According to article PMC10350922, “Allosteric Inhibitors of Macrophage Migration Inhibitory Factor (MIF) Interfere with Apoptosis-Inducing Factor (AIF) Co-Localization to Prevent Parthanatos” (Journal of Medicinal Chemistry, 2023):

molecular target: MIF; assay: not given; set-up: method as in PMID 32940040; conditions: competitive MIF tautomerase inhibitor; cited from earlier work

For COc1ccc(N2Cc3ccc(O)cc3OC2=O)cc1OC [ZP143, reference compound], the Ki is given as 100 ± 10 nM.

system: HeLa cells; assay: Cell viability (MTS) assay, MNNG-induced parthanatos; type: cell-based; conditions: MTS assay

For COc1ccc(N2Cc3ccc(O)cc3OC2=O)cc1OC [ZP143, reference compound], the “Protective effect in MNNG-induced parthanatos” value was “no protective effect”.

molecular target: T1, MIF (Homo sapiens, UniProt P14174); assay: MIF tautomerase activity assay (PP substrate, UV absorbance at 300 nm); type: biochemical; conditions: 10 μM inhibitor; activity without inhibitor set to 100%; mean, n = 3
T1 construct: made in house; host or cells: Escherichia coli BL21, pET-20b(p) plasmid
T1 sequence (P14174 2-115 limits assumed): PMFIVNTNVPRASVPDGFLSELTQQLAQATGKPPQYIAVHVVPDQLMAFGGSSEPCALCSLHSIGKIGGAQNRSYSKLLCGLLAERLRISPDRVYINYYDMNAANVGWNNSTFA
Experimental: Recombinant human MIF with a C-terminal His-tag was expressed and purified following methods published previously.[47] The inhibitory potency for MIF tautomerase activity of the 1-phenyl-1H-1,2,3-triazole-4-carboxamides was measured after pre-incubation with MIF. The MIF-catalyzed PP tautomerization was measured by the corresponding change in UV absorbance over the first 3 min of the reaction.[48] Initial screening of the inhibitory potency was performed at 10 μM inhibitor concentration.
Inhibition of the tautomerase activity and kinetics of MIF was measured using […] (PP) as a substrate. A stock solution was prepared by mixing PP in 50 mM ammonium acetate buffer and adjusted to pH 6.0 using 1.0 M NaOH to provide a concentration of 20 mM. This solution was incubated overnight at 37 °C to allow equilibration of the keto and enol forms and then stored at 4 °C. For the assay, MIF stock solution (10 μL, 70 μM) was diluted in 20 mL of the boric acid buffer (435 mM H3BO3, 1 mM EDTA, pH 6.2) to provide 35 nM solution. The enzyme activity was determined by premixing 192 μL of the MIF dilution with 8 μL of the inhibitors dissolved in DMSO (1 mM). This mixture was preincubated for 10 min. Next, 50 μL of the mixture was mixed with 50 μL of 2 mM PP solution in ammonium acetate buffer. Subsequently, MIF tautomerase activity was monitored by the formation of the borate–enol complex, which was measured by the increase in UV absorbance at 300 nm. The increase in UV absorbance was measured over the first 10 min of incubation using a BioTek Synergy H1 Hybrid plate reader. MIF tautomerase activity in the presence of blank DMSO was set to 100% enzyme activity. […] Data from the first 3 min were used to calculate the initial velocities. All of the graphs were prepared in GraphPad Prism.
For the IC50 measurements, 1 mM solutions of the compounds were double-diluted 10 times in DMSO and subsequently, the MIF tautomerase activity was determined by premixing 190 μL of the MIF dilution with 10 μL of the inhibitors. This mixture was preincubated for 10 min and mixed with the 2 mM PP solution as described above.

Point of comparison: O=C(NCCc1ccccc1Cl)c1cn(-c2cccc(Cl)c2)nn1 [Compound 6t, N-(2-Chlorophenethyl)-1-(3-chlorophenyl)-1H-1,2,3-triazole-4-carboxamide], remaining activity at 10 µM 66%. Against it:
- O=C(Nc1ccccc1)c1cn(-c2ccccc2)nn1 [Compound 6a, N,1-Diphenyl-1H-1,2,3-triazole-4-carboxamide] — higher, 84%
- O=C(Nc1ccc(F)cc1)c1cn(-c2ccccc2)nn1 [Compound 6b, N-(4-Fluorophenyl)-1-phenyl-1H-1,2,3-triazole-4-carboxamide] — lower, 65%
- O=C(Nc1ccc(Br)cc1)c1cn(-c2ccccc2)nn1 [Compound 6c, N-(4-Bromophenyl)-1-phenyl-1H-1,2,3-triazole-4-carboxamide] — lower, 37%
- COc1ccccc1-n1cc(C(=O)Nc2ccc(Cl)cc2)nn1 [Compound 6d, N-(4-Chlorophenyl)-1-(2-methoxyphenyl)-1H-1,2,3-triazole-4-carboxamide] — higher, 87%
- COc1ccccc1-n1cc(C(=O)NC(C)c2ccc(Br)cc2)nn1 (centres unmarked) [Compound 6e, N-(1-(4-Bromophenyl)ethyl)-1-(2-methoxyphenyl)-1H-1,2,3-triazole-4-carboxamide] — higher, 79%
- CCc1ccc(-n2cc(C(=O)Nc3cccc(F)c3)nn2)cc1 [Compound 6f, 1-(4-Ethylphenyl)-N-(3-fluorophenyl)-1H-1,2,3-triazole-4-carboxamide] — lower, 50%
- Cc1ccc(-n2cc(C(=O)Nc3ccc(F)cc3)nn2)cc1C [Compound 6g, 1-(3,4-Dimethylphenyl)-N-(4-fluorophenyl)-1H-1,2,3-triazole-4-carboxamide] — lower, 54%
- O=C(NCCc1ccccc1Cl)c1cn(-c2ccc(Cl)c(Cl)c2)nn1 [Compound 6h, N-(2-Chlorophenethyl)-1-(3,4-dichlorophenyl)-1H-1,2,3-triazole-4-carboxamide] — lower, 65%
- O=C(CCc1ccco1)NCc1cn(-c2ccc(Cl)c(Cl)c2)nn1 [Compound 6i] — higher, 90%
- COC(=O)C(Cc1ccccc1)NC(=O)c1cn(-c2ccc(Cl)c(Cl)c2)nn1 (centres unmarked) [Compound 6j, Methyl-(1-(3,4-dichlorophenyl)-1H-1,2,3-triazole-4-carbonyl)phenylalaninate] — lower, 58%
- O=C(NC1CCCC1)c1cn(-c2ccc(Cl)c(Cl)c2)nn1 [Compound 6k, N-Cyclopentyl-1-(3,4-dichlorophenyl)-1H-1,2,3-triazole-4-carboxamide] — lower, 50%
- O=C(NCc1ccco1)c1cn(-c2ccc(Cl)c(Cl)c2)nn1 [Compound 6l, 1-(3,4-Dichlorophenyl)-N-(furan-2-ylmethyl)-1H-1,2,3-triazole-4-carboxamide] — lower, 38%
- COc1ccc(CNC(=O)c2cn(-c3ccc(Cl)c(Cl)c3)nn2)cc1OC [Compound 6m, 1-(3,4-Dichlorophenyl)-N-(3,4-dimethoxybenzyl)-1H-1,2,3-triazole-4-carboxamide] — higher, 80%
- N#Cc1cc(Cl)ccc1-n1cc(C(=O)Nc2ccc(F)cc2)nn1 [Compound 6n, 1-(4-Chloro-2-cyanophenyl)-N-(4-fluorophenyl)-1H-1,2,3-triazole-4-carboxamide] — lower, 47%
- CCc1ccc(NC(=O)c2cn(-c3ccc(F)cc3[N+](=O)[O-])nn2)cc1 [Compound 6p, N-(4-Ethylphenyl)-1-(4-fluoro-2-nitrophenyl)-1H-1,2,3-triazole-4-carboxamide] — lower, 45%
- O=C(NCc1ccc(Cl)cc1)c1cn(-c2ccc(F)cc2)nn1 [Compound 6q, N-(4-Chlorobenzyl)-1-(4-fluorophenyl)-1H-1,2,3-triazole-4-carboxamide] — lower, 58%
- O=C(NCc1ccc(Cl)cc1)c1cn(-c2ccc(Cl)cc2)nn1 [Compound 6r, N-(4-Chlorobenzyl)-1-4-chlorophenyl-1H-1,2,3-triazole-4-carboxamide] — lower, 57%
- O=C(NCCc1ccccc1)c1cn(-c2cccc(Cl)c2)nn1 [Compound 6s, 1-(3-Chlorophenyl)-N-phenethyl-1H-1,2,3-triazole-4-carboxamide] — lower, 40%
- O=C(NCCc1ccccc1)c1cn(-c2cccc3ncccc23)nn1 [Compound 6u, N-Phenethyl-1-(quinolin-5-yl)-1H-1,2,3-triazole-4-carboxamide] — the same, 66%
- Cc1ccc(-n2cc(C(=O)NCc3ccccc3)nn2)cc1C [Compound 6v, N-Benzyl-1-(3,4-dimethylphenyl)-1H-1,2,3-triazole-4-carboxamide] — lower, 21%
- CC(NC(=O)c1cn(-c2ccc(C(=O)NC3CC3)cc2)nn1)c1ccccc1 (centres unmarked) [Compound 6w, 1-(4-(Cyclopropylcarbamoyl)phenyl)-N-(1-phenylethyl)-1H-1,2,3-triazole-4-carboxamide] — lower, 39%
- O=C(Nc1ccccc1)c1ccc(-n2cc(C(=O)NCc3ccccc3)nn2)cc1 [Compound 6x, N-Benzyl-1-(4-(phenylcarbomyl)phenyl)-1H-1,2,3-triazole-4-carboxamide] — lower, 14%
- COC(=O)CC1CC(c2ccc(O)cc2)=NO1 (centres unmarked) [ISO-1, reference compound] — lower, 60%

For “N-(4-Bromophenyl)-1-(4-cyanophenyl)-1H-1,2,3-triazole-4-carboxamide [Compound 6o]”, the “Activity of MIF (%)” value was 44%.

same assay, conditions: PP as substrate, 10 min preincubation; read-out: IC50, inhibition of MIF tautomerase activity

Point of comparison: O=C(Nc1ccccc1)c1ccc(-n2cc(C(=O)NCc3ccccc3)nn2)cc1 [Compound 6x, N-Benzyl-1-(4-(phenylcarbomyl)phenyl)-1H-1,2,3-triazole-4-carboxamide], IC50 2500 ± 100 nM. Against it:
- Cc1ccc(-n2cc(C(=O)NCc3ccccc3)nn2)cc1C [Compound 6v, N-Benzyl-1-(3,4-dimethylphenyl)-1H-1,2,3-triazole-4-carboxamide] — 2.6-fold higher, 6500 ± 400 nM
